What all share (test): growth of human tumour cells (NCI), 48 h
The test system of assay [1] is ACHN.
The subject of assay [2] is CAKI-1.
Assay [3] concerns COLO 205.
Assay [4] deals with DU-145.
Assay [5] deals with EKVX.
In assay [6] the test system is HCT-15.
Assay [7] relates to LOX IMVI.
For assay [8], the system named is M14.
In assay [9] the test system is MDA-MB-231.
Assay [10] has as its system NCI-H226.
The subject of assay [11] is NCI-H23.
Assay [12] concerns NCI-H460.
For assay [13], the system named is NCI/ADR-RES.
Assay [14] has as its system RPMI-8226.
For assay [15], the system named is RXF 393.
For assay [16], the system named is SK-MEL-28.
The subject of assay [17] is SN12C.
Assay [18] deals with SNB-75.
Assay [19] relates to SW-620.
The subject of assay [20] is T47D.

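48-hour exposure; five concentrations; linearly interpolated endpoints. The concentration for 50% growth inhibition is given as GI50.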 The source made the active and inactive calls. Cut-off read from the data, not from the text of the source: active = GI50 up to about 1.1 µM and inactive = higher.

For `Nc1nc(O)c(N)c(NCCOCP(=O)(O)O)n1`, the GI50 in [1] was > 100 µM (inactive); in [2], > 100 µM (inactive); in assay [3], > 100 µM (inactive); in assay [4] it was > 100 µM (inactive); in [5] it was > 100 µM (inactive); in assay [6] it was > 100 µM. Also, the GI50 in assay [7] was > 100 µM (inactive); in assay [8], > 100 µM (inactive); in assay [9] it was > 100 µM (inactive); in [10] it was > 100 µM (inactive); in assay [11], > 57.8 µM (inactive); in [12], > 100 µM (inactive). The GI50 was > 100 µM (inactive) in assay [13]; > 100 µM (inactive) in [14]; > 100 µM (inactive) in [15]; > 100 µM (inactive) in [16]; > 100 µM (inactive) in assay [17]; > 65.6 µM (inactive) in assay [18]. Moreover, the GI50 in [19] and in [20] was > 100 µM (inactive) throughout.
In the case of `NS(=O)(=O)c1ccc(NC(=O)Nc2cccc3ccccc23)cc1`, the GI50 in assay [1] is 33.2 µM (inactive); in [2], > 100 µM (inactive); in assay [3] it was 86.9 µM (inactive); in [4] it was 23.8 µM (inactive); in [5] it was 28.4 µM (inactive); in assay [6] it was 91.4 µM. The GI50 is 43.1 µM (inactive) in assay [7]; 86.9 µM (inactive) in [8]; 19.4 µM (inactive) in assay [9]; 27.2 µM (inactive) in [10]; 34.4 µM (inactive) in [11]; 40.8 µM (inactive) in [12]. Besides, the GI50 is 46 µM (inactive) in assay [13]; > 100 µM (inactive) in assay [14]; 30.5 µM (inactive) in [15]; 39.4 µM (inactive) in assay [16]; 45.5 µM (inactive) in [17]; 22.5 µM (inactive) in [18]. In addition, the GI50 was 44.8 µM (inactive) in [19] and 33.5 µM (inactive) in assay [20].
Turning to `O=C(Oc1ccc(OC(Oc2ccccc2)c2ccccc2)cc1)c1ccccc1` (stereo not given), the GI50 in [1] was 26.7 µM (inactive); in [2], > 10 µM (inactive); in assay [3] it was > 31.6 µM (inactive); in assay [4], > 31.6 µM (inactive); in assay [5] it was 29.7 µM (inactive); in [6], > 10 µM. In addition, the GI50 was 22.1 µM (inactive) in assay [7]; 8.38 µM (inactive) in assay [8]; 28 µM (inactive) in assay [9]; > 31.6 µM (inactive) in [10]; 6.21 µM (inactive) in assay [11]; > 63.2 µM (inactive) in assay [12]. Further, the GI50 in assay [13] was 27.9 µM (inactive); in assay [14], 13.2 µM (inactive); in assay [15], > 92.3 µM (inactive); in [16], 17.1 µM (inactive); in assay [17] it was 28.8 µM (inactive); in assay [18], 27.5 µM (inactive). Also, the GI50 in assay [19] was > 31.6 µM (inactive); in [20] it was 50 µM (inactive).
In the case of `N[C@H]1CCCC[C@@H]1N1C(=O)c2ccccc2C1(O)c1ccc(Cl)cc1` (stereo not given in full), the GI50 in assay [1] was 13.7 µM (inactive); in [2], 4.4 µM (inactive); in assay [3], 3.41 µM (inactive); in assay [4], 13.2 µM (inactive); in [5], 15.3 µM (inactive); in assay [6] it was 13.4 µM. Moreover, the GI50 in [7] was 9.38 µM (inactive); in [8], 9.44 µM (inactive); in assay [9], 12.9 µM (inactive); in [10] it was 15.9 µM (inactive); in assay [11], 14.9 µM (inactive); in assay [12], 11.2 µM (inactive). The GI50 is 12.7 µM (inactive) in [13]; 2.61 µM (inactive) in assay [14]; 6.07 µM (inactive) in [15]; 3.78 µM (inactive) in assay [16]; 13.7 µM (inactive) in assay [17]; 1.31 µM (inactive) in [18]. Further, the GI50 in [19] is 6.3 µM (inactive); in [20] it was 4.99 µM (inactive).
Regarding `CN(Cc1ccccc1)/C(=N\C#N)N(Cc1ccccc1)Cc1ccccc1`, the GI50 in [1] is 24.3 µM (inactive); in assay [2] it was 20.1 µM (inactive); in assay [3], 19 µM (inactive); in [4], 39.9 µM (inactive); in assay [5], 34.6 µM (inactive); in assay [6], 26.6 µM. For the same compound, the GI50 in [7] was 16.4 µM (inactive); in assay [8] it was 20.3 µM (inactive); in assay [9], 20.6 µM (inactive); in [10], 28.8 µM (inactive); in assay [11], 21.9 µM (inactive); in assay [12], 27.6 µM (inactive). Also, the GI50 in assay [13] is 19.8 µM (inactive); in [14], 21 µM (inactive); in assay [15], 28.9 µM (inactive); in assay [16] it was 27.3 µM (inactive); in assay [17], 34.7 µM (inactive); in assay [18], 30.5 µM (inactive). The GI50 in assay [19] was 40.4 µM (inactive); in [20], 27.7 µM (inactive).
For `C=CCC1(OCc2ccccc2)C(=O)C(=O)OC1C1COC(C)(C)O1` (stereo not given), the GI50 was > 100 µM (inactive) in [1]; > 100 µM (inactive) in [2]; > 100 µM (inactive) in assay [3]; > 100 µM (inactive) in assay [4]; > 100 µM (inactive) in assay [5]; > 100 µM in assay [6]. The GI50 in [7], in assay [8], in assay [9], in assay [10], in assay [11] and in [12] was > 100 µM (inactive) in each case. The GI50 in assay [13], in assay [14], in assay [15], in assay [16], in [17] and in assay [18] was > 100 µM (inactive) each time. Besides, the GI50 in assay [19] and in assay [20] was > 100 µM (inactive) each time.
Take `O=C(NCc1cccnc1)NCc1cccnc1`: the GI50 in [1] is > 100 µM (inactive); in [2], > 100 µM (inactive); in assay [3] it was > 100 µM (inactive); in assay [4], > 100 µM (inactive); in assay [5], > 100 µM (inactive); in assay [6] it was > 100 µM. Moreover, the GI50 in assay [7] was > 100 µM (inactive); in [8], > 100 µM (inactive); in assay [9] it was > 100 µM (inactive); in assay [10], 58.9 µM (inactive); in assay [11] it was > 100 µM (inactive); in [12], > 100 µM (inactive). The GI50 in [13], in [14], in assay [15], in assay [16], in assay [17] and in assay [18] was > 100 µM (inactive) in each case. Further, the GI50 in assay [19] and in assay [20] was > 100 µM (inactive) each time.
Consider `COc1ccc(C(CC(C)=O)c2c(O)c3ccccc3oc2=O)cc1OC` (stereo not given), for which the GI50 is > 100 µM (inactive) in [1]; > 100 µM (inactive) in assay [2]; > 100 µM (inactive) in assay [3]; > 100 µM (inactive) in [4]; > 100 µM (inactive) in assay [5]; > 100 µM in [6]. Moreover, the GI50 in [7], in [8], in assay [9], in assay [10], in assay [11] and in [12] was > 100 µM (inactive) in each case. Also, the GI50 in assay [13], in assay [14], in assay [15], in assay [16], in assay [17] and in [18] was > 100 µM (inactive) in each case. For the same compound, the GI50 in assay [19] and in assay [20] was > 100 µM (inactive) throughout.
Consider `Cc1ccc(S(=O)(=O)NNC(=O)Nc2ccc([N+](=O)[O-])cc2)cc1`, for which the GI50 was > 100 µM (inactive) in assay [1]; 65.8 µM (inactive) in [2]; 42.3 µM (inactive) in assay [3]; 83.2 µM (inactive) in assay [4]; > 100 µM (inactive) in [5]; 24.5 µM in assay [6]. The GI50 is 52.4 µM (inactive) in [7]; 89.5 µM (inactive) in assay [8]; 22.1 µM (inactive) in [9]; > 100 µM (inactive) in [10]; 36.7 µM (inactive) in assay [11]; 23.9 µM (inactive) in assay [12]. Moreover, the GI50 in assay [13] was 27.4 µM (inactive); in assay [14], 20 µM (inactive); in assay [15], > 100 µM (inactive); in assay [16] it was > 100 µM (inactive); in assay [17], 97.1 µM (inactive); in assay [18], 72.9 µM (inactive). Moreover, the values for the GI50 in [19] and in [20] were 33 µM (inactive) and 2.65 µM (inactive), respectively.
Consider `CCCCCC1=C/C(=C\c2[nH]c(-c3ccc[nH]3)cc2OC)N=C1C`, for which the GI50 is < 0.01 µM (active) in assay [1]; < 0.01 µM (active) in [2]; < 0.01 µM (active) in [3]; < 0.01 µM (active) in assay [4]; 0.0145 µM (active) in assay [5]; < 0.01 µM in assay [6]. Further, the GI50 in assay [7] was < 0.01 µM (active); in [8], < 0.01 µM (active); in [9] it was < 0.01 µM (active); in assay [10], 0.012 µM (active); in [11], 0.0128 µM (active); in assay [12], 0.0124 µM (active). Also, the GI50 was < 0.01 µM (active) in assay [13]; < 0.01 µM (active) in assay [14]; 0.0115 µM (active) in assay [15]; 0.0215 µM (active) in assay [16]; < 0.01 µM (active) in assay [17]; < 0.01 µM (active) in assay [18]. The GI50 in assay [19] is < 0.01 µM (active); in assay [20], 0.0189 µM (active).
